“Also recorded” adds a separate entry of the source.
Assays:
[1] = tested on: oxotremorine induced tremor; assay: Potentiation of oxotremorine induced tremor; assay type: in vivo; settings: mice; for Mean tremor score after pretreatment: score 0-2
Method: (§1) Saline was administered as a blank. The tremor intensity was assessed visually for a 60 min period starting from the injection of oxotremorine and physostigmine respectively. The following rating scores were used:
(§2) 1--moderate or discontinuous tremor of the head and forelimbs
(§3) 2--strong tremor involving the whole body

tremor = assay: Tremor caused by alaproclate per se; assay type: in vivo, mice; settings: in words
Method: Saline was administered as a blank. The tremor intensity was assessed visually for a 60 min period starting from the injection of oxotremorine and physostigmine respectively.

[2] = tested on: physostigmine induced tremor; assay: Potentiation of physostigmine induced tremor; assay type: in vivo; settings: mice; for Mean tremor score after pretreatment: score 0-2
Method: as §1, §2, §3

## CC(N)C(=O)OC(C)(C)Cc1ccc(Cl)cc1 (stereo not drawn) [Alaproclate, 2-(4-chloro-phenyl)-1,1-dimethylethyl-2-aminopropanoate]
[1]; in words
  Potentiation of oxotremorine induced tremor: able to enhance; also recorded: potentiates
[1]; alaproclate 20 mg/kg i.p., 10 min after oxotremorine 100 μg/kg s.c.
  Mean tremor score after pretreatment: 0,7
[1]; alaproclate 20 mg/kg i.p., 15 min after oxotremorine 100 μg/kg s.c.
  Mean tremor score after pretreatment: 1,0
[1]; alaproclate 20 mg/kg i.p., 30 min after oxotremorine 100 μg/kg s.c.
  Mean tremor score after pretreatment: 0,8
[1]; alaproclate 40 mg/kg i.p., 5 min after oxotremorine 100 μg/kg s.c.
  Mean tremor score after pretreatment: 0,3
[1]; alaproclate 40 mg/kg i.p., 10 min after oxotremorine 100 μg/kg s.c.
  Mean tremor score after pretreatment: 1,0
[1]; alaproclate 40 mg/kg i.p., 15 min after oxotremorine 100 μg/kg s.c.
  Mean tremor score after pretreatment: 1,3
[1]; alaproclate 40 mg/kg i.p., 30 min after oxotremorine 100 μg/kg s.c.
  Mean tremor score after pretreatment: 1,2
[1]; alaproclate 40 mg/kg i.p., 60 min after oxotremorine 100 μg/kg s.c.
  Mean tremor score after pretreatment: 0,5
[1]; alaproclate 60 mg/kg i.p., 5 min after oxotremorine 100 μg/kg s.c.
  Mean tremor score after pretreatment: 0,1
[1]; alaproclate 60 mg/kg i.p., 10 min after oxotremorine 100 μg/kg s.c.
  Mean tremor score after pretreatment: 1,0
[1]; alaproclate 60 mg/kg i.p., 15 min after oxotremorine 100 μg/kg s.c.
  Mean tremor score after pretreatment: 1,5
[1]; alaproclate 60 mg/kg i.p., 30 min after oxotremorine 100 μg/kg s.c.
  Mean tremor score after pretreatment: 1,6
[1]; alaproclate 60 mg/kg i.p., 60 min after oxotremorine 100 μg/kg s.c.
  Mean tremor score after pretreatment: 1,0
tremor
  Tremor caused by the compound per se: does not cause tremor
[2]; in words
  Potentiation of physostigmine induced tremor: able to enhance; also recorded: potentiates
[2]; alaproclate 20 mg/kg i.p., 5 min after physostigmine 200 μg/kg s.c.
  Mean tremor score after pretreatment: 0,3
[2]; alaproclate 20 mg/kg i.p., 10 min after physostigmine 200 μg/kg s.c.
  Mean tremor score after pretreatment: 0,8
[2]; alaproclate 20 mg/kg i.p., 15 min after physostigmine 200 μg/kg s.c.
  Mean tremor score after pretreatment: 0,8
[2]; alaproclate 40 mg/kg i.p., 5 min after physostigmine 200 μg/kg s.c.
  Mean tremor score after pretreatment: 0,3
[2]; alaproclate 40 mg/kg i.p., 10 min after physostigmine 200 μg/kg s.c.
  Mean tremor score after pretreatment: 1,0
[2]; alaproclate 40 mg/kg i.p., 15 min after physostigmine 200 μg/kg s.c.
  Mean tremor score after pretreatment: 0,7
[2]; alaproclate 40 mg/kg i.p., 30 min after physostigmine 200 μg/kg s.c.
  Mean tremor score after pretreatment: 0,3
[2]; alaproclate 60 mg/kg i.p., 5 min after physostigmine 200 μg/kg s.c.
  Mean tremor score after pretreatment: 0,7
[2]; alaproclate 60 mg/kg i.p., 10 min after physostigmine 200 μg/kg s.c.
  Mean tremor score after pretreatment: 1,3
[2]; alaproclate 60 mg/kg i.p., 15 min after physostigmine 200 μg/kg s.c.
  Mean tremor score after pretreatment: 0,8
[2]; alaproclate 60 mg/kg i.p., 30 min after physostigmine 200 μg/kg s.c.
  Mean tremor score after pretreatment: 0,7

From patent US4469707A, “Method for treatment of senile dementia” (Astra Lakemedel Aktiebolag, priority 1983, dated 1984)
